Test results reported in ChEMBL document CHEMBL3612053, “Discovery and SAR study of 3-(tert-butyl)-4-hydroxyphenyl benzoate and benzamide derivatives as novel farnesoid X receptor (FXR) antagonists” (Bioorg Med Chem, 2015).

Tests used:
[1] = Half life in serum (unknown origin); type: ADME, cell-free
Bile acid receptor = target: T1, Bile acid receptor (Homo sapiens, UniProt Q96RI1); assay: Antagonist activity at GST-tagged FXR LBD (unknown origin) assessed as inhibition of CDCA-induced Bio-SRC-1 recruitment after 30 mins by HTRF assay
T1 sequence (Q96RI1 whole entry): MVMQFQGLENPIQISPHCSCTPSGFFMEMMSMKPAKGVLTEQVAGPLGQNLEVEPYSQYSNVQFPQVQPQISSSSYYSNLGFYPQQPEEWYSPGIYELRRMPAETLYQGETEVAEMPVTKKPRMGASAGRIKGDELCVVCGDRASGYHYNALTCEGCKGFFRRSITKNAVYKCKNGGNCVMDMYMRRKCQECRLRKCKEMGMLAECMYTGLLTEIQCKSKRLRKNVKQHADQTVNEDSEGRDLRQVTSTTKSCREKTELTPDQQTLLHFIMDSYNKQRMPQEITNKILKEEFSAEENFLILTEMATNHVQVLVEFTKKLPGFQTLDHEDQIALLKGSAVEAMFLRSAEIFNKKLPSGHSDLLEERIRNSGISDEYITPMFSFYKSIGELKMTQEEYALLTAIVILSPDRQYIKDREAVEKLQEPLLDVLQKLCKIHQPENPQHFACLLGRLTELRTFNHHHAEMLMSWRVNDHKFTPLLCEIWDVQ

[2] = target: T2, Bile acid receptor (Homo sapiens) (UniProt Q96RI1); assay: Potency index, ratio of guggulsterone IC50 to compound IC50 for GST-tagged FXR LBD (unknown origin)
T2 sequence (whole entry): T1 sequence (Q96RI1 whole entry)

| SMILES | half-life [1] [h] | IC50 (Bile acid receptor) [µM] | Ratio IC50 [2] |
| --- | --- | --- | --- |
| CC(C)c1cc(NC(=O)c2ccc(Cl)cc2Cl)ccc1O | > 1 | > 100 |  |
| CC(C)(C)c1cc(OC(=O)c2ccc([N+](=O)[O-])cc2)ccc1O | < 0.25 | 12.7 |  |
| CN(C)c1cc(Cl)c(C(=O)Nc2ccc(O)c(C(C)(C)C)c2)c(Cl)c1 | > 1 | 1.4 |  |
| CCNc1cc(Cl)c(C(=O)Nc2ccc(O)c(C(C)(C)C)c2)c(Cl)c1 | > 1 | 28.7 |  |
| CC(=O)Oc1ccc(NC(=O)c2ccc(Cl)cc2Cl)cc1C(C)(C)C | > 1 | 15.5 |  |
| CC(C)(C)c1cc(NC(=O)c2c(Cl)cc(N)cc2Cl)ccc1O | > 1 | 5.2 |  |
| CN(C)c1cc(Cl)c(C(=O)N(c2ccc(O)c(C(C)(C)C)c2)C2CCCCC2)c(Cl)c1 | > 1 | > 100 |  |
| Cc1ccccc1C(=O)Oc1ccc(O)c(C(C)(C)C)c1 | < 0.25 | > 100 |  |
| C=CCOc1ccc(NC(=O)c2ccc(Cl)cc2Cl)cc1C(C)(C)C | > 1 | > 100 |  |
| CC(C)(C)c1cc(NC(=O)c2c(Cl)cc(N3CCNCC3)cc2Cl)ccc1O | > 1 | > 100 |  |
| CC(C)(C)c1cc(NC(=O)c2c(Cl)cc(NCc3cccs3)cc2Cl)ccc1O | > 1 | 8.6 |  |
| CCc1cc(NC(=O)c2ccc(Cl)cc2Cl)ccc1O | > 1 | > 100 |  |
| Cc1ccc(C(=O)Oc2ccc(O)c(C(C)(C)C)c2)cc1 | < 0.25 | > 100 |  |
| CC(C)(C)c1cc(NC(=O)c2c(Cl)cc(N3CCCCC3)cc2Cl)ccc1O | > 1 | > 100 |  |
| CC(C)(C)c1cc(NC(=O)c2ccc(Cl)cc2Cl)ccc1O | > 1 | 13.6 |  |
| COc1ccc(NC(=O)c2ccc(Cl)cc2Cl)cc1C(C)(C)C | > 1 | > 100 |  |
| CC(C)(C)c1cc(NC(=O)c2c(Cl)cc(NC3CCCCC3)cc2Cl)ccc1O | > 1 | 2.5 |  |
| Cc1cc(NC(=O)c2ccc(Cl)cc2Cl)ccc1O | > 1 | > 100 |  |
| CC(C)(C)c1cc(OC(=O)c2c(Cl)cc(N)cc2Cl)ccc1O | < 0.25 | 0.6 | 100 |
| CC(C)(C)c1cc(NC(=O)c2c(Cl)cc(NC3CCCC3)cc2Cl)ccc1O | > 1 | 5 |  |

| SMILES | half-life [1] [h] | IC50 (Bile acid receptor) [µM] | Ratio IC50 [2] |
| --- | --- | --- | --- |
| CNc1cc(Cl)c(C(=O)Nc2ccc(O)c(C(C)(C)C)c2)c(Cl)c1 | > 1 | 13.9 |  |
| CN(C)c1cc(Cl)c(C(=O)N(CC2CCCCC2)c2ccc(O)c(C(C)(C)C)c2)c(Cl)c1 | > 1 | > 100 |  |
| CC(C)(C)c1cc(OC(=O)c2ccc(Cl)cc2)ccc1O | < 0.25 | > 100 |  |
| CC(C)(C)c1cc(OC(=O)c2ccc(N)cc2Cl)ccc1O | < 0.25 | 7.2 |  |
| CC(C)(C)c1cc(OC(=O)c2ccc(N)cc2)ccc1O | < 0.25 | 34.2 |  |
| CC(C)(C)c1cc(NC(=O)c2c(Cl)cc(NCc3cccnc3)cc2Cl)ccc1O | > 1 | 3.6 |  |
| CC(C)(C)c1cc(OC(=O)Cc2ccccc2)ccc1O | < 0.25 | > 100 |  |
| COc1ccccc1C(=O)Oc1ccc(O)c(C(C)(C)C)c1 | < 0.25 | > 100 |  |
| CC(C)(C)c1cc(NC(=O)c2c(Cl)cc(NCc3ccncc3)cc2Cl)ccc1O | > 1 | 9.8 |  |
| CC(C)(C)c1cc(OC(=O)c2ccccc2)ccc1O | < 0.25 | > 100 |  |
| CC(C)(C)c1cc(OC(=O)c2c(Cl)cc([N+](=O)[O-])cc2Cl)ccc1O | < 0.25 | 5.9 |  |
| CN(C)c1cc(Cl)c(C(=O)N(C)c2ccc(O)c(C(C)(C)C)c2)c(Cl)c1 | > 1 | 3.9 |  |
| CN(c1cc(Cl)c(C(=O)Nc2ccc(O)c(C(C)(C)C)c2)c(Cl)c1)C1CCCCC1 | > 1 | > 100 |  |
| CC(C)(C)c1cc(OC(=O)c2ccco2)ccc1O | < 0.25 | > 100 |  |
| CN(C)c1cc(Cl)c(C(=O)N(Cc2cccnc2)c2ccc(O)c(C(C)(C)C)c2)c(Cl)c1 | > 1 | 6.3 |  |
| CC(C)(C)c1cc(NC(=O)c2ccc(Cl)cc2Cl)cc(C(C)(C)C)c1O | > 1 | > 100 |  |
| CC(C)(C)c1cc(OC(=O)c2ccc(Cl)cc2Cl)ccc1O | 0.167 | 10.2 |  |
| CC(C)(C)c1cc(OC(=O)c2ccc([N+](=O)[O-])cc2Cl)ccc1O | < 0.25 | 8.8 |  |
| CC(C)(C)c1cc(OC(=O)/C=C/c2ccccc2)ccc1O | < 0.25 | > 100 |  |
